Target: T1, β-secretase (BACE) (Homo sapiens, UniProt P56817)
T1 construct: purchased Panvera
Test: BACE FS1 % Inhibition Assay
Type: biochemical
Experimental: The following reagents were used in this assay: sodium acetate, PEG8000 (Sigma), DMSO, HEPES, FS1 substrate [[…]] […] The FS1-substrate stock solution was prepared in DMSO as a 10 mg/mL solution. The FS1-substrate working solution was prepared by diluting the 10 mg/mL stock solution with substrate assay buffer to a final concentration of 300 μg/mL. The β-secretase (BACE) working solution was prepared by diluting a 0.83 mg/mL BACE stock solution with enzyme assay buffer to a final concentration of 4 μg/mL. Test compounds were dissolved in DMSO to 10 mM. […] The screening procedure for this assay was as follows: 15 μL of BACE working solution was pipetted into each well of a 96-well plate. To each well was then pipetted 2 μL of test compound at the selected concentration. Test compound and BACE were then mixed with a pipettor and incubated for 20 min at room temperature. To each well was then added 10 μL of the FS1 substrate working solution. The plates were then incubated for 1 hour at room temperature. […] The procedure for the blank was as follows. 15 μL of assay buffer was pipetted into each well to be used as a blank control. To each well was then added 2 μL of vehicle and 10 μL of FS1-substrate working solution. The plates were then incubated for 1 hour at room temperature. […] The procedure for the positive control was as follows: 15 μL of BACE working solution was pipetted into each well to be used as a positive control. To each well was then pipetted 2 μL of vehicle. Vehicle and BACE were then mixed with a pipettor and incubated for 20 min at room temperature. To each well was then added 10 μL of the FS1 substrate working solution. The plates were then incubated for 1 hour at room temperature. […] For test compounds, % inhibition was determined at each concentration as follows: [formula]

T1 sequence (P56817 46-501): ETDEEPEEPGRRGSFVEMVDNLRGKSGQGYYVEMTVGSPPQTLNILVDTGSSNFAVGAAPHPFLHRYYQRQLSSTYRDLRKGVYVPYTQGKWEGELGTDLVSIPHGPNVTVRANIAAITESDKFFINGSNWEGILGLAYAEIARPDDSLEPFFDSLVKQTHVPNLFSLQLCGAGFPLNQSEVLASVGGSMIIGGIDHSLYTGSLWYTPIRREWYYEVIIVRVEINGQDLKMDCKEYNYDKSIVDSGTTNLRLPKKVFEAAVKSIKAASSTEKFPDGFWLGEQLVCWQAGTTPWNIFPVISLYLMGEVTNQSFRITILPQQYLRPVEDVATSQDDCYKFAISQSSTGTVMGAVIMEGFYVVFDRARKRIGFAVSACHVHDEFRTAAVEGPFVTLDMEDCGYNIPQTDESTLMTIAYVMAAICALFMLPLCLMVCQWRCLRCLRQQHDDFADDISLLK

Row | % Inhibition (FS) (3 μM test compound) | % Inhibition (FS) (10 μM test compound) | % Inhibition (FS) (0.3 μM test compound) | % Inhibition (FS) (1 μM test compound) | Structure (SMILES) | other results
1 |  |  |  |  | COC(=O)C1CCCC(N(C)C(=O)CCC(C2CCCCC2)N2Cc3cc(Oc4ccccc4)ccc3N=C2N)C1 (mixture of isomers) [Compound 777] | % Inhibition (FS) (0.3 μM compound, FS1 substrate): 38%; % Inhibition (FS) (1 μM compound, FS1 substrate): 97%
2 | 106% | 124% |  |  | CCCC(CCCC(=O)N(C)C1CCCCC1)N1Cc2cc(Oc3ccccc3)ccc2N=C1N (stereo not drawn) [Compound 90] | 
3 | 68% | 117% |  |  | CCCC(CCCC(=O)NC1CCCCC1)N1Cc2cc(Oc3ccccc3)ccc2N=C1N (stereo not drawn) [Compound 91] | 
4 | 103% | 114% |  |  | CCCC(CCCC(=O)N(C)C1CCN(C)CC1)N1Cc2cc(Oc3ccccc3)ccc2N=C1N (stereo not drawn) [Compound 106] | 
5 | 40% | 105% |  |  | NC1=Nc2ccc(Oc3ccccc3)cc2CN1CCCCNC(=O)C1CCCCC1 [Compound 115] | 
6 | 39% | 81% |  |  | NC1=Nc2ccc(Oc3ccccc3)cc2CN1CCCCNC(=O)C1CCCC1 [Compound 116] | 
7 |  |  |  |  | CN(C(=O)c1ccc2c(c1)C(N1Cc3cc(Oc4ccccc4)ccc3N=C1N)c1ccccc1-2)C1CCCCC1 (stereo not drawn) [Compound 118] | % Inhibition (FS) (3 μM test compound, 3 µM): 48%; % Inhibition (FS) (10 μM test compound, 10 µM): 91%
8 | 42% | 75% |  |  | NC1=Nc2ccc(Oc3ccccc3)cc2CN1C1CCN(C(=O)C2CCCCC2)C1 (stereo not drawn) [Compound 119] | 
9 | <30% | 34% |  |  | NC1=Nc2ccc(Oc3ccccc3)cc2CN1C1CCN(C(=O)C2CCCC2)C1 (stereo not drawn) [Compound 120] | 
10 | 56% | 67% |  |  | NC1=Nc2ccc(Oc3ccccc3)cc2CN1C1c2ccccc2-c2cccc(C(=O)N(C3CCCCC3)C3CCCCC3)c21 (stereo not drawn) [Compound 124] | 
11 | 97% | 108% |  |  | CCCC(CCC(=O)NC1CCCCCC1)N1Cc2cc(Oc3ccccc3)ccc2N=C1N (stereo not drawn) [Compound 128] | 
12 | 113% | 113% |  |  | CCCC(CCC(=O)NC1CCCCC1)N1Cc2cc(Oc3ccccc3)ccc2N=C1N (stereo not drawn) [Compound 129] | 
13 | 54% | 118% |  |  | NC1=Nc2ccc(Oc3ccccc3)cc2CN1C(c1ccccc1)c1cccc(C(=O)N(C2CCCCC2)C2CCCCC2)c1 (stereo not drawn) [Compound 132] | 
14 | 82% | 107% |  |  | CCCC(CCCC(=O)NC1CCCCCC1)N1Cc2cc(Oc3ccccc3)ccc2N=C1N (stereo not drawn) [Compound 137] | 
15 | <30% | 61% |  |  | NC1=Nc2ccc(Oc3ccccc3)cc2CN1CCNC(=O)C1CC1c1ccccc1 (stereo not drawn) [Compound 139] | 
16 | <30% | 38% |  |  | CCCCCCCCCC(=O)NCCN1Cc2cc(Oc3ccccc3)ccc2N=C1N [Compound 142] | 
17 | <30% | 32% |  |  | NC1=Nc2ccc(Oc3ccccc3)cc2CN1CCCNC(=O)C1CC1 [Compound 143] | 
18 | 39% | 59% |  |  | NC1=Nc2ccc(Oc3ccccc3)cc2CN1CCCNC(=O)C1CCC1 [Compound 144] | 
19 | <30% | 37% |  |  | CN(C(=O)c1ccc2c(c1)C(N1Cc3cc(Oc4ccccc4)ccc3N=C1N)CC2)C1CCCCC1 (stereo not drawn) [Compound 145] | 
20 | <30% | 39% |  |  | COc1ccc2c(c1)C(CC(=O)N(C)C1CCCCC1)CC2N1Cc2cc(Oc3ccccc3)ccc2N=C1N (stereo not drawn) [Compound 146] | 

Row | % Inhibition (FS) (3 μM test compound) | % Inhibition (FS) (10 μM test compound) | % Inhibition (FS) (0.3 μM test compound) | % Inhibition (FS) (1 μM test compound) | Structure (SMILES) | other results
21 | <30% | 71% |  |  | NC1=Nc2ccc(Oc3ccccc3)cc2CN1C1c2ccccc2-c2c(C(=O)N(C3CCCCC3)C3CCCCC3)cccc21 (stereo not drawn) [Compound 147] | 
22 | 90% |  | <30% | <30% | CCCCCC(CCC(=O)NC1CCCCCC1)N1Cc2cc(Oc3ccccc3)ccc2N=C1N (stereo not drawn) [Compound 150] | 
23 | <30% | 49% |  |  | NC1=Nc2ccc(Oc3ccccc3)cc2CN1CCNC(=O)CCc1ccccc1 [Compound 155] | 
24 | <30% | 40% |  |  | CC(C)(C)c1ccc(C(=O)NCCN2Cc3cc(Oc4ccccc4)ccc3N=C2N)cc1 [Compound 156] | 
25 | <30% | 50% |  |  | CCCCc1ccc(C(=O)NCCN2Cc3cc(Oc4ccccc4)ccc3N=C2N)cc1 [Compound 157] | 
26 | <30% |  | <30% | <30% | CN(C(=O)c1cccc(CN2Cc3cc(-c4cn[nH]c4)ccc3N=C2N)c1)C1CCCCC1 [Compound 161] | 
27 | <30% |  | <30% | <30% | CN(C(=O)c1cccc(CN2Cc3cc(-c4ccc(C(N)=O)cc4)ccc3N=C2N)c1)C1CCCCC1 [Compound 162] | 
28 | <30% |  | <30% | 33% | CN(C(=O)c1cccc(CN2Cc3cc(-c4cccc(C(=O)O)c4)ccc3N=C2N)c1)C1CCCCC1 [Compound 163] | 
29 | 74% |  | <30% | 37% | CC(=O)Nc1cccc(-c2ccc3c(c2)CN(Cc2cccc(C(=O)N(C)C4CCCCC4)c2)C(N)=N3)c1 [Compound 166] | 
30 | <30% |  | <30% | <30% | CN(C(=O)c1cccc(CN2Cc3cc(-c4ccncc4)ccc3N=C2N)c1)C1CCCCC1 [Compound 168] | 
31 | 42% |  | <30% | 31% | CN(C(=O)c1cccc(CN2Cc3cc(-c4cccc(-c5ccccc5)c4)ccc3N=C2N)c1)C1CCCCC1 [Compound 171] | 
32 | <30% |  | <30% | <30% | CN(C)Cc1ccccc1-c1ccc2c(c1)CN(Cc1cccc(C(=O)N(C)C3CCCCC3)c1)C(N)=N2 [Compound 172] | 
33 | 37% |  | <30% | <30% | CN(C(=O)c1cccc(CN2Cc3cc(-c4ccc5[nH]ccc5c4)ccc3N=C2N)c1)C1CCCCC1 [Compound 175] | 
34 | 77% |  | <30% | <30% | NC1=Nc2ccc(Oc3ccccc3)cc2CN1CCC(=O)N(C1CCCCC1)C1CCCCC1 [Compound 180] | 
35 | 32% |  | <30% | <30% | CC(C)N(C(=O)CCN1Cc2cc(Oc3ccccc3)ccc2N=C1N)C(C)C [Compound 181] | 
36 | 38% |  | <30% | <30% | CCCCCC1CCC(C(=O)NCCN2Cc3cc(Oc4ccccc4)ccc3N=C2N)CC1 (stereo not drawn) [Compound 182] | 
37 | 31% |  | <30% | <30% | CC(C)(C)C1CCC(C(=O)NCCN2Cc3cc(Oc4ccccc4)ccc3N=C2N)CC1 (stereo not drawn) [Compound 184] | 
38 | 39% |  | <30% | <30% | CC1CCC(N(C(=O)c2cccc(CN3Cc4cc(Oc5ccccc5)ccc4N=C3N)c2)C2CCC(C)CC2)CC1 (stereo not drawn) [Compound 187] | 
39 | <30% |  | <30% | <30% | NC1=Nc2ccc(Oc3ccccc3)cc2CN1Cc1cccc(C(=O)NCCc2ccc(S(N)(=O)=O)cc2)c1 [Compound 188] | 

— patent US8426429B2, “2-amino-quinazoline derivatives useful as inhibitors of β-secretase (BACE)” (Jansssen Pharmaceutica N.V., priority 2004, dated 2013)
